Results on 1 substance are retold here after patent US6649780B1, “Cationic lipids” (Valentis, Inc., priority 1998, dated 2003).

The data set in a line: Liposome formation and sizing after extrusion. It counts as physicochemical. How it is done:
Two mice studies have been performed for the evaluation of cationic lipids of the present invention, in comparison with DOTIM. In brief, the lipid combinations were tested as carriers for gene transfer by intravenous delivery in ICR female mice (25 g), and expression was determined using the plasmid p4119 containing the CAT reporter gene under the control of the HCMV promoter. The lipids were dissolved in a mixture of chloroform and methanol (1.1). Lipid films of cationic and neutral lipid at a 1:1 molar ratio were formed with a rotary evaporator. The films were hydrated with 5% dextrose in water (D5W) at room temperature and extruded through a series of membranes having pore sizes of 400 nm, 200 nm, and 50 nm.
DNA-liposome complexes were prepared at a 1:10 DNA:cationic lipid ratio (mg DNA per μmole cationic lipid) by adding the DNA, in a solution at 0.625 mg/mL concentration in D5W to the solution of liposomes, in an equal volume, with constant stirring, using a Hamilton Dilutor 540B (Hamilton, Reno, Nev.). The lipids used were MBN 246, 247, 248, 249, 250, 251 and 252 (FIG. 10). MBN 249 was used in a 1:10 ratio with cholesterol. MBN 250 was used in a 1:10 ratio with DLPE. The DNA solution was 0.3125 mg/mL DNA in D5W. […] Zeta potential was determined by a Zeta Plus, Zeta Potential Analyzer (Brookhaven Instruments Corp.).

In the case of “N,N-Dimethyl-N-(2,3-dihydroxypropanylo-N-(2,3-dioleyloxypropanyl)amonium Chloride [MBN305]”, the liposome formation result is on record as “forms liposomes easily”.
